Patent US20240319166A1, “Genetically-encoded volatile synthetic biomarkers for breath-based cancer detection” (The Board of Trustees of the Leland Stanford Junior …, priority 2021, published 2024)

Experiments:
[1] = cited from earlier work
[2] = Quantitation of limonene evolution from limonene-injected mice (closed chamber, SIFT-MS); format: in vivo
Description: Having observed robust limonene expression in transfected HeLa cells in culture, the feasibility of detecting limonene in exhaled breath from rodents was then tested. A standard curve relating limonene concentration in chamber headspace to the quantity of limonene spiked into 0.5-L chambers was generated. To determine the fraction of limonene in mice that was emitted into the headspace, mice were injected intraperitoneally with different quantities of a limonene standard solution (from 0.01 μg to 1 mg) and individual mice were placed in a closed chamber for 15 minutes, at which point headspace limonene concentrations were measured by SIFT-MS (FIG. 4A and FIG. 4B).
Using the standard curve, the mass of limonene exhaled by mice at each quantity injected was determined and the fraction exhaled was calculated. At the LOD (0.5 ppb), limonene in the chamber headspace became detectable when 2.3 ng had been spiked into the chamber, whereas limonene evolving from mice only became detectable at an injected dose of 450 ng (FIG. 4B, Supplementary Calculations shown in Example 2, infra). […]
Prior to mouse studies, a calibration curve was generated. Known limonene quantities (10 μg to 100 μg) were added to 10 mL of water in […] (Kent Scientific, Torrington, CT). […]

In the case of `C=C(C)[C@H]1CC=C(C)CC1` [limonene], the safe oral dose [1] is given as no more than 100 mg/kg, the “safe oral dose for an average 70 kg adult” value [1] is given as roughly 7 g and the “fraction of injected limonene emitted into the chamber headspace” value ([2]; intraperitoneal injection, 0.5-L chamber, within 15 minutes) is given as roughly 0.5%. The “injected dose at which limonene evolving from mice became detectable” value ([2]; intraperitoneal, at the LOD (0.5 ppb), 15 minutes) was 450 ng.
